Source: patent publication US10975098B2, “Substituted aminothiazolopyrimidinediones for the treatment of virus infection” (Hoffmann-La Roche Inc., priority 2015, dated 2021)

Key:
human TLR7 = target: T1, human TLR7 (Homo sapiens, UniProt Q9NYK1); experiment: HEK293-Blue-hTLR-7 cells assay (SEAP reporter); assay type: cell-based; details: TLR7 agonism, 20 hours incubation, 1% DMSO
T1 sequence (Q9NYK1 27-1049): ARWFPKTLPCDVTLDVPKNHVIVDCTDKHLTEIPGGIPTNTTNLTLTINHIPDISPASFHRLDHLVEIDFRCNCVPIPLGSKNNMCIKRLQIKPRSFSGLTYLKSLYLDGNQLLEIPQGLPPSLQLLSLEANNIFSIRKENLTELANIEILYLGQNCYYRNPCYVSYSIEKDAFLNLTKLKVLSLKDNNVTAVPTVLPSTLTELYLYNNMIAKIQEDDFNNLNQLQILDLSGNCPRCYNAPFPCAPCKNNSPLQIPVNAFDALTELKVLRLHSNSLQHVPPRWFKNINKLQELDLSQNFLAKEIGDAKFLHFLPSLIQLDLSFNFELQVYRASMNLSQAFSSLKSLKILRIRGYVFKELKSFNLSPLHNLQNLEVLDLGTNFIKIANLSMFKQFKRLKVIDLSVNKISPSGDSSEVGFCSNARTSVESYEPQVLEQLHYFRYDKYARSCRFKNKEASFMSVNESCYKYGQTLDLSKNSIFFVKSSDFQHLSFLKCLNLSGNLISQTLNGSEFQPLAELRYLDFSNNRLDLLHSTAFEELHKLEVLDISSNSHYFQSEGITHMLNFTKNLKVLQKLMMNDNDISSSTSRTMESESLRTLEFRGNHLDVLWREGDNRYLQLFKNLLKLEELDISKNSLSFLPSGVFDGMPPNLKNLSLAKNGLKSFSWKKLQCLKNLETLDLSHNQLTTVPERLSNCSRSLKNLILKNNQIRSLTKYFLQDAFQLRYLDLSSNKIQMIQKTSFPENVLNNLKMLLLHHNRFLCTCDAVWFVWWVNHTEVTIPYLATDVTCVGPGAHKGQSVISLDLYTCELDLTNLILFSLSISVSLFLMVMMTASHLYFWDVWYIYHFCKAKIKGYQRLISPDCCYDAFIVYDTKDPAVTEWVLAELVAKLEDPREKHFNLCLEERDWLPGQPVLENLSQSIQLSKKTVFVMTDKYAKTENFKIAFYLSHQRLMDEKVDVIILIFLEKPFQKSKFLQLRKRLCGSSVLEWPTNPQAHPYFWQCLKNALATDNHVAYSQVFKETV
Source text: HEK293-Blue-hTLR-7 Cells Assay
(§1) A stable HEK293-Blue-hTLR-7 cell line was purchased from InvivoGen (Cat. #: hkb-htlr7, San Diego, Calif., USA). These cells were designed for studying the stimulation of human TLR7 by monitoring the activation of NF-κB. A SEAP (secreted embryonic alkaline phosphatase) reporter gene was placed under the control of the IFN-β minimal promoter fused to five NF-κB and AP-1-binding sites. The SEAP was induced by activating NF-κB and AP-1 via stimulating HEK-Blue hTLR7 cells with TLR7 ligands. Therefore the reporter expression was regulated by the NF-κB promoter upon stimulation of human TLR7. The cell culture supernatant SEAP reporter activity was determined using QUANTI-Blue™ kit (Cat. #: rep-qb 1, Invivogen, San Diego, Calif., USA) at a wavelength of 640 nm, a detection medium that turns purple to blue in the presence of alkaline phosphatase.
(§2) HEK293-Blue-hTLR7 cells were incubated at a density of 250,000˜450,000 cells/mL in a volume of 180 μL in a 96-well plate in Dulbecco's Modified Eagle's medium (DMEM) containing 4.5 g/L glucose, 50 U/mL penicillin, […], […], 2 mM L-glutamine, 10% (v/v) heat-inactivated fetal bovine serum for 24 hours. Then the HEK293-Blue-hTLR-7 cells were incubated with addition of 20 μL test compound in a serial dilution in the presence of final DMSO at 1% and perform incubation under 37° C. in a CO2 incubator for 20 hours. Then 20 μL of the supernatant from each well was incubated with 180 μL Quanti-blue substrate solution at 37° C. for 1-3 hours and the absorbance was read at 620-655 nm using a spectrophotometer. The signalling pathway that TLR7 activation leads to downstream NF-κB activation has been widely accepted, and therefore similar reporter assay was also widely used for evaluating TLR7 agonist (Tsuneyasu Kaisho and Takashi Tanaka, Trends in Immunology, Volume 29, Issue 7, July 2008, Pages 329. sci; Hiroaki Hemmi et al, Nature Immunology 3, 2002, 196-200).
(§3) The compounds of the present invention were tested in the above assay for their TLR7 and TLR8 agonism activities as described herein and results are listed in Table 1.

human TLR8 = target: T2, human TLR8 (Homo sapiens, UniProt Q9NR97); experiment: HEK293-Blue-hTLR-8 cells assay (SEAP reporter); assay type: cell-based; details: TLR8 agonism, 20 hours incubation, 1% DMSO
T2 sequence (Q9NR97 27-1041): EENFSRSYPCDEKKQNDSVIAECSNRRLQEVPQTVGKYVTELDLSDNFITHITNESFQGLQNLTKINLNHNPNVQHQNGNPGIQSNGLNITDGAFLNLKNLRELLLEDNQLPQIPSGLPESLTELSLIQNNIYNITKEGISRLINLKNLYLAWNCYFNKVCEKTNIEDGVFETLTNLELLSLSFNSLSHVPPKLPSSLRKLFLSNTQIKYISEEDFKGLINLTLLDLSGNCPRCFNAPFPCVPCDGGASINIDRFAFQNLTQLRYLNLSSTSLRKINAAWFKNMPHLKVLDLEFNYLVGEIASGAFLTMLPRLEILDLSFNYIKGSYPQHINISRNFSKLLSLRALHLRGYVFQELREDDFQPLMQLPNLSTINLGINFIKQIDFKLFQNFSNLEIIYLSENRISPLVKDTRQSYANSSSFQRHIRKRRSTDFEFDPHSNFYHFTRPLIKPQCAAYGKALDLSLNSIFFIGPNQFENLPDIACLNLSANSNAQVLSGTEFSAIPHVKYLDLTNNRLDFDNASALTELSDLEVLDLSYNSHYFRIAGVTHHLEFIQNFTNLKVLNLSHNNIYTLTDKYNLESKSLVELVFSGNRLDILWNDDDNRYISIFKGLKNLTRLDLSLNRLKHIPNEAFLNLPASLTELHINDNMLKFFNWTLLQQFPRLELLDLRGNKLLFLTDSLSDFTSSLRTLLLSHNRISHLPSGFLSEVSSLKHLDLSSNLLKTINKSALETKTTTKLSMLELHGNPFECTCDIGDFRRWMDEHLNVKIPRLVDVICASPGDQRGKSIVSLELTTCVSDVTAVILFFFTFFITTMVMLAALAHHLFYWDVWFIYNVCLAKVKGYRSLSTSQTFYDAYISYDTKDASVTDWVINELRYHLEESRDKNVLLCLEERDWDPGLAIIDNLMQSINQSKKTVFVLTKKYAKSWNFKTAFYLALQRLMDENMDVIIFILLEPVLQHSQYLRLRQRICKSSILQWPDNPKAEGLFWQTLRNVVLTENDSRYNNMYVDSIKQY
Source text: HEK293-Blue-hTLR-8 cells assay:
as §1, with “HEK293-Blue-hTLR-8” for “HEK293-Blue-hTLR-7”, “hkb-htlr8,” for “hkb-htlr7,”, “TLR8” for “TLR7”, “hTLR8” for “hTLR7”, “TLR8.” for “TLR7.”
as §2, with “HEK293-Blue-hTLR8” for “HEK293-Blue-hTLR7”, “250,000-450,000” for “250,000˜450,000”, “HEK293-Blue-hTLR-8” for “HEK293-Blue-hTLR-7”, “TLR8” for “TLR7”, “TLR8 agonist.” for “TLR7 agonist (Tsuneyasu Kaisho and Takashi Tanaka, Trends in Immunology, Volume 29, Issue 7, July 2008, Pages 329. sci; Hiroaki Hemmi et al, Nature Immunology 3, 2002, 196-200).”
as §3

Row | Structure (SMILES) | EC50 (human TLR7) | EC50 (human TLR8)
1 | CC[C@H](O)[C@@H]1C[C@@H]([C@H](C)N)[C@H](n2c(=O)sc3c(=O)[nH]c(N)nc32)O1 [Example 1-A, 5-Amino-3-[(2R,3S,5S)-3-[(1S)-1-aminoethyl]-5-[(1S)-1-hydroxypropyl]tetrahydrofuran-2-yl]-6H-thiazolo[4,5-d]pyrimidine-2,7-dione] | 75 µM | 1.3 µM
2 | CC[C@H](O)[C@@H]1C[C@@H]([C@@H](C)N)[C@H](n2c(=O)sc3c(=O)[nH]c(N)nc32)O1 [Example 1-B, 5-amino-3-[(2R,3S,5S)-3-[(1R)-1-aminoethyl]-5-[(1S)-1-hydroxypropyl]tetrahydrofuran-2-yl]-6H-thiazolo[4,5-d]pyrimidine-2,7-dione] | 101 µM | 55 µM
3 | CC[C@H](O)[C@@H]1C[C@@H]([C@@H](C)NC)[C@H](n2c(=O)sc3c(=O)[nH]c(N)nc32)O1 [Example 2, 5-Amino-3-[(2R,3S,5S)-5-[(1S)-1-hydroxypropyl]-3-[(1R)-1-(methylamino)ethyl]tetrahydrofuran-2-yl]-6H-thiazolo[4,5-d]pyrimidine-2,7-dione] | 81 µM | 27 µM
4 | CC[C@H](O)[C@@H]1C[C@@H]([C@H](C)NC)[C@H](n2c(=O)sc3c(=O)[nH]c(N)nc32)O1 [Example 6, 5-Amino-3-[(2R,3S,5S)-5-[(1S)-1-hydroxypropyl]-3-[(1S)-1-(methylamino)ethyl]tetrahydrofuran-2-yl]-6H-thiazolo[4,5-d]pyrimidine-2,7-dione] | 250 µM | 4 µM
5 | CC[C@H](O)[C@@H]1C[C@@H]([C@@H](C)N(C)C)[C@H](n2c(=O)sc3c(=O)[nH]c(N)nc32)O1 [Example 8, 5-Amino-3-[(2R,3S,5S)-3-[(1R)-1-(dimethylamino)ethyl]-5-[(1S)-1-hydroxypropyl]tetrahydrofuran-2-yl]-6H-thiazolo[4,5-d]pyrimidine-2,7-dione] | 82 µM | 185 µM

Now those with a lower EC50 (human TLR7), led by results:

Row | EC50 (human TLR7) | EC50 (human TLR8) | Structure (SMILES)
6 | 7.7 µM | 125 µM | CCCN[C@H](C)[C@@H]1C[C@@H]([C@@H](O)CC)O[C@H]1n1c(=O)sc2c(=O)[nH]c(N)nc21 [Example 3, 5-Amino-3-[(2R,3S,5S)-5-[(1S)-1-hydroxypropyl]-3-[(1R)-1-(propylamino)ethyl]tetrahydrofuran-2-yl]-6H-thiazolo[4,5-d]pyrimidine-2,7-dione]
7 | 3.5 µM | 94 µM | CC[C@H](O)[C@@H]1C[C@@H]([C@@H](C)NC2CC2)[C@H](n2c(=O)sc3c(=O)[nH]c(N)nc32)O1 [Example 4, 5-Amino-3-[(2R,3S,5S)-3-[(1R)-1-(cyclopropylamino)ethyl]-5-[(1S)-1-hydroxypropyl]tetrahydrofuran-2-yl]-6H-thiazolo[4,5-d]pyrimidine-2,7-dione]
8 | 3.7 µM | 85 µM | CC[C@H](O)[C@@H]1C[C@@H]([C@@H](C)NCc2ccccc2)[C@H](n2c(=O)sc3c(=O)[nH]c(N)nc32)O1 [Example 5, 5-Amino-3-[(2R,3S,5S)-3-[(1R)-1-(benzylamino)ethyl]-5-[(1S)-1-hydroxypropyl]tetrahydrofuran-2-yl]-6H-thiazolo[4,5-d]pyrimidine-2,7-dione]
9 | 3.4 µM | 2.2 µM | CC[C@H](O)[C@@H]1C[C@@H]([C@H](C)NCc2ccccc2)[C@H](n2c(=O)sc3c(=O)[nH]c(N)nc32)O1 [Example 7, 5-Amino-3-[(2R,3S,5S)-3-[(1S)-1-(benzylamino)ethyl]-5-[(1S)-1-hydroxypropyl]tetrahydrofuran-2-yl]-6H-thiazolo[4,5-d]pyrimidine-2,7-dione]
